Patent US8957022B2, “Multimeric tie 2 agonists and uses thereof in stimulating angiogenesis” (Sunnybrook Health Sciences Centre, priority 2006, dated 2015)

Tests used:
[1] = test system: CD1 mice; test: Matrigel plug angiogenesis assay; format: in vivo, mouse; conditions: for Vessel growth in plugs (confocal analysis): FITC lectin
Protocol: To further examine the in vivo angiogenic potential of Vasculotide, a Matrigel assay was performed. More specifically, growth factor reduced Matrigel (BD Biosciences) was impregnated with either clustered Vasculotide or one of several different control factors. These Matrigel samples were injected subcutaneously into the flank region of 3 month old CD1 mice. 14 days post implantation and immediately prior to sacrifice, FITC lectin (100 μg) was injected IV and allowed to circulate for 10 minutes, to facilitate vessel identification and quantification. Plugs were surgically resected and fixed in 4% paraformaldehyde (PFA) for 16 h. Images of vascular topology were taken using a Zeiss dissecting microscope at 4× magnification. Upon fixing, all plugs were whole mount stained with anti-Sma1-Cy3. Plugs were analyzed on a Zeiss Axiovert 100 M confocal microscope (Carl Zeiss) for three dimensional image reconstruction and photos were processed using LSM Image Browser and Adobe Photoshop 7.0. Morphometric quantification of vessel characteristics was performed by skeletonizing confocal image projections with Image Processing Tool Kit 5.0 (IPTK 5.0). Student's t test was used to test the statistical significance with a 95% confidence interval. All experiments were performed with three replicates each, with at least 5 random image stacks.
To more fully address and assign quantitative vessel parameters to the different treatment groups, the plugs were fixed and interrogated with laser confocal microscopy analysis combined with post processing image analysis (Image Processing Tool Kit 5.0, Reindeer Graphics, N.C.). Vessel parameters, including length, number and branch points (nodes) were quantified on at least six representative fields. Statistical analysis was performed by way of unpaired Student's t test. Bar graphs of the number of vessels, vessel length and number of nodes, for each treatment group, are shown in FIGS. 3A, 3B and 3C, respectively. It is noted that poor perfusion of FITC-lecithin into mice harboring 20 nM clustered Vasculotide plus VEGF plugs prevented statistical analysis, therefore bars are the mean of two separate fields. All other bars shown represent mean+/−SD.
Ang 1 has been reported to potentiate the recruitment of myogenic support cells (Suri, C. et al. (1996) Cell 87:1171-1180) and inhibit VEGF induced vascular permeability through mechanisms that are not well understood (Thurston, G. et al. (2000) Nat. Med. 6:460-463). To determine if Vasculotide, like Ang 1, was capable of initiating pericyte recruitment, whole mount immunofluorescence was performed against smooth muscle actin 1 (Sma1). […] Sma 1 staining was tightly associated with the exterior of the vessels and was enriched on larger vessels.

[2] = test system: B6.Cg-m(+/+)Lepr(db)/J (db/db) mice; test: Excisional wound healing in diabetic mice, topical application; format: in vivo, mouse
Protocol: Pathogen free, nine week old B6.Cg-m(+/+)Lepr(db)/J (db/db) mice were purchased from Jackson Laboratories. Circular, full excisional, 6 mm diameter wounds were made, according to animal committee approval guidelines, equal distant apart on the dorsal side of the mice. Various factors were suspended in sterile Intrasite Topical Gel (Smith and Nephew) at noted concentrations. Treatments were as follows: Vehicle n=8, bFGF (10 μg/ml) n=8, clustered Vasculotide (20 nM) n=4, clustered Vasculotide (5 nM) n=4. Preparations were applied at day 0 (time of wounding), day 2, 4 and 6. Standardized images were taken on days 0, 2, 4, 6 and 7 using a Canon EOS digital Rebel camera. Image J (NIH) was used to manually outline wound perimeter from which total pixel counts (wound area) were determined. Mice were sacrificed on day 7 and full wound beds including margin were excised and fixed in 4% PFA. Wounds were cut in half at the widest point and each half was prepared for either paraffin or frozen sections. Wax sections were processed according to standard protocols for H&E and Masson's Trichrome stain. Images were captured using a Leica DMLS compound light microscope and Pixel Link camera at 5× and 20×. Student's t test was used to test the statistical significance.
For histological scoring, sections were fixed in 4% paraformaldehyde, embedded in paraffin and sectioned and stained with H & E and Masson's trichrome. Sections were evaluated by a pathologist for re-epithelialization, granulation tissue formation, and inflammation, with criteria used for scoring skin as follows:
• 0—none • 1—minimal (0-20% regrowth from wound margins) • 2—mild (25% to 50% regrowth) • 3—moderate (>50% regrowth, up to 100% but not >2 cells thick along length) • 4—complete regrowth (epithelium>1 cell thick along length, keratinized) Granulation Tissue (GT) and Neovascularization: • 0—none • 1—minimal (1-3 small, isolated islands of GT at margins of defect) • 2—mild (multifocal, patchy islands of GT underlying tissue defect, <10 new blood vessels) • 3—moderate (locally extensive bands of GT underlying length of defect) • 4—marked (dense bands of GT at margins and underlying length of defect with collagen fibrils and numerous blood vessels) Inflammation (within Defect): • 0—none • 1—minimal (a few scattered neutrophils at margins of defect) • 2—mild (multifocal aggregates of up to 5 neutrophils underlying defect) • 3—moderate (multifocal aggregates of up to 10 neutrophils and occasional macrophages, minimal to mild edema) • 4—marked (locally extensive, dense neutrophilic infiltrates with lesser numbers of macrophages, mild-moderate edema)

[3] = test system: Cos 1 fibroblast cells and C166 EC's (phenotypically null for Tie 2); test: MAPK and AKT phosphorylation in Ad-EGFP infected cells null for Tie 2; format: cell-based; conditions: EGFP infected Cos 1 and C166 cells
Protocol: To more formally address the specificity of clustered Vasculotide for the Tie 2 receptor, reconstitution experiments were performed in Cos 1 fibroblast cells and C166 EC's, both of which are phenotypically null for Tie 2. Cos 1 and C166 cells (ATCC) were maintained on 10-cm-diameter plates (Nunc) in Dulbecco's modified Eagle's medium (DMEM) supplemented with 10% (FBS), 1× penicillin, 1× streptomycin, and 200 mM L-glutamine (all Gibco BRL) in a 5% CO2 incubator at 37° C. Cos1 or C166 cells were infected (MOI 30) overnight with adenoviruses encoding one of either enhanced green fluorescent protein (EGFP) or Tie 2. Infection efficiency was confirmed by epifluorescence (EGFP), or by immunoblot (Tie 2).
Cells infected with recombinant adenovirus encoding EGFP or Tie 2 were either left unstimulated or stimulated with Vasculotide, clustered Vasculotide or avidin for 16 hours, after which MTS reagent was applied to all samples for 4 hours. Absorbance at 492 was measured using a multiwell plate reader (Power Wave X340, Biotek Instruments Inc). To broadly examine the potential that clustered Vasculotide was activating Tie 2-independent downstream signalling pathways, the activation of MAPK and AKT in the EGFP infected cells was examined. […] This fact precluded us from stimulating these cells any further with Vasculotide or clustered Vasculotide.

For “Vasculotide: biotinylated T7 peptide-PEG: Cys-His-His-His-Arg-His-Ser-Phe (SEQ ID NO: 2) conjugated to EZ-link-PEO-maleimide-biotin”, the “Vessel growth in plugs (confocal analysis)” value ([1]; 14 days post implantation) was “no significant vessel growth”, the “Granulation tissue production (H&E and MT staining)” value ([2]; day 7 wound sections) was “dramatic increases in granulation tissue production” and the “Phosphorylation of MAPK or AKT above non-stimulated samples” value [3] was “Neither Vasculotide nor clustered Vasculotide significantly induced phosphorylation of MAPK or AKT”.
With “clustered Vasculotide: Vasculotide clustered with avidin in a 4:1 ratio, an obligate tetrameric compound” the “Nature of vessels (arborization, tortuosity)” value ([1]; 14 days post implantation) was “clear, large, well arborized vessels”, the “Vessel growth in plugs (confocal analysis)” value ([1]; 14 days post implantation) was “robust induction of angiogenesis” and the “Angiogenic response in the membranous capsule surrounding the plugs” value ([1]; 14 days post implantation, subcutaneous) was “distinct and robust angiogenic response”. For the same substance, the “Smooth muscle actin 1 (Sma1) staining, pericyte recruitment” value ([1]; whole mount immunofluorescence) was “significant increase in overall Sma 1 staining”, the “Benefit at lower concentration” value ([2]; 5 nM versus 20 nM) was “seemed to offer more benefit” and the “Inflammation (histological score)” value ([2]; 5 nM, p=0.0979) was “not significantly different from vehicle”. For the same substance, the “Regranulation and neovascularization (histological score)” value ([2]; 20 nM and 5 nM p=0.0006) was “profound increases in regranulation and neovascularization”, the “Wound margin (pixel counts) at day 2” value ([2]; 20 nM topical, p=0.05, n=4) was “Significant decreases in wound margin” and the “Re-epithelialization (histological score)” value ([2]; 20 nM, p=0.0004 and 5 nM, p=0.029) was “delayed re-epithelialization”. The “Inflammation (histological score)” value ([2]; 20 nM, p=0.034) was “only slightly increased”, the “Overall collagen deposition (Masson's Trichrome)” value ([2]; both concentrations, compared to vehicle and bFGF) was “dramatically increased” and the “Lymphangiogenesis (podoplannin-positive vessels)” value ([2]; immunohistochemistry) was “not accompanied by an increase in lymphangiogenesis”. The “PECAM1- and Pan EC-positive vessels within the granulation tissue” value ([2]; immunohistochemistry, 5 nM and 20 nM) was “dramatic increases in the number of PECAM1- and Pan EC-positive vessels”, the “Margin closure for the duration of the assay” value ([2]; topical, days 0-7) was “continued at an accelerated pace” and the “Phosphorylation of MAPK or AKT above non-stimulated samples” value [3] was “Neither Vasculotide nor clustered Vasculotide significantly induced phosphorylation of MAPK or AKT”.
